Test results from patent US9624228B2, “Inhibitors of ERK and methods of use” (KURA ONCOLOGY, INC., priority 2013, dated 2017).

Biological target: ERK2 enzyme (Homo sapiens (Human), UniProt P28482)
Test: Inhibition assay of ERK (Z'-LYTE kinase assay, Ser/Thr 3 peptide substrate)
Type: biochemical
Conditions: 100 μM ATP
[1] = In vitro, ERK2 enzyme 0.47 ng/μL

Sequence of ERK2 enzyme (P28482 whole entry): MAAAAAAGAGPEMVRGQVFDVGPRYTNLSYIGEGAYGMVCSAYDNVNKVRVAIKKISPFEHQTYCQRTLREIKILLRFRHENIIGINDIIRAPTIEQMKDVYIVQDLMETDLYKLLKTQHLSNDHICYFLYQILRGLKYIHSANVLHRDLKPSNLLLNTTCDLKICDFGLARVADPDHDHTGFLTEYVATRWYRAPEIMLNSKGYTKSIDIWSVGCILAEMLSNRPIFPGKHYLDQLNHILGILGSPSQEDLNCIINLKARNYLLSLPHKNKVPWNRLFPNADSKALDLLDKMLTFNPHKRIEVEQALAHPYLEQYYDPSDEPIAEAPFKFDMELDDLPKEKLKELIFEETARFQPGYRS

Row | IC50 (In vitro ERK2 enzyme) [µM] | IC50 [1] [µM] | SMILES
1 |  | < 0.05 | COc1cc(-c2n[nH]c3cc4c(cc23)CN([C@@H]2CCCN(Cc3ccccc3)C2)C(=O)N4)ccn1 [Compound 270]
2 | < 0.05 |  | Cn1cc(-c2n[nH]c3cc4c(cc23)CN(Cc2ccc(F)c(Cl)c2)C(=O)N4)cn1 [Compound 31]
3 | < 0.05 |  | O=C1Nc2cc3[nH]nc(-c4cncnc4)c3cc2CN1Cc1cccc(Cl)c1 [Compound 123]
4 | < 0.05 |  | O=C1Nc2cc3[nH]nc(-c4ccc5nncn5c4)c3cc2CN1Cc1cccc(Cl)c1 [Compound 59]
5 | < 0.05 |  | Cc1cc(-c2n[nH]c3cc4c(cc23)CN(Cc2ccc(F)cc2F)C(=O)N4)ccn1 [Compound 11]
6 | < 0.05 |  | Cc1cc(-c2n[nH]c3cc4c(cc23)CN(CCc2cccc(Cl)c2)C(=O)N4)ccn1 [Compound 50]
7 |  | < 0.05 | Cc1ncc(-c2n[nH]c3cc4c(cc23)CN([C@@H]2CN(CC(F)(F)F)C[C@H]2c2ccccc2)C(=O)N4)cn1 [Compound 349]
8 |  | < 0.05 | COc1ncc(-c2n[nH]c3cc4c(cc23)CN([C@@H]2CCCN(Cc3cccs3)C2)C(=O)N4)cn1 [Compound 295]
9 |  | < 0.05 | CCN1CC[C@@H](N2Cc3cc4c(-c5ccnc(C)c5)n[nH]c4cc3NC2=O)C1 [Compound 256]
10 | < 0.05 |  | C[C@H](c1cccc(Cl)c1)N1Cc2cc3c(-c4ccnnc4)n[nH]c3cc2NC1=O [Compound 111]
11 | < 0.05 |  | Cc1cc(-c2n[nH]c3cc4[nH]c(=O)c(C(C)c5ccccc5)cc4cc23)ccn1 (centres unmarked) [Compound 22]
12 | < 0.05 |  | Nc1ncc(-c2n[nH]c3cc4c(cc23)CN(Cc2cccc(Cl)c2)C(=O)N4)cn1 [Compound 93]
13 |  | < 0.05 | COc1ccc(-c2n[nH]c3cc4c(cc23)CN([C@@H]2CCN(CC(F)(F)F)C2)C(=O)N4)cn1 [Compound 277]
14 |  | < 0.05 | O=C1Nc2cc3[nH]nc(-c4cccnc4)c3cc2CN1[C@@H]1CN(CC(F)(F)F)C[C@H]1c1ccccc1 [Compound 341]
15 | < 0.05 |  | Cc1cc(-c2n[nH]c3cc4c(cc23)CN(CCN)C(=O)N4)ccn1 [Compound 83]
16 |  | 0.05 to 0.25 | Cc1cc(-c2n[nH]c3cc4c(cc23)CN([C@@H]2CN(C3CCOCC3)C[C@H]2c2ccccc2)C(=O)N4)ccn1 (mixture of isomers) [Compound 359]
17 | < 0.05 |  | COc1ccc(-c2n[nH]c3cc4c(cc23)CN(Cc2ccc(F)cc2)C(=O)N4)cn1 [Compound 76]
18 | < 0.05 |  | Cc1ccc(-c2n[nH]c3cc4c(cc23)CN(Cc2cccc(Cl)c2)C(=O)N4)cn1 [Compound 58]
19 |  | < 0.05 | C[C@H](c1ccccc1)c1cc2cc3c(NC4CCOCC4)n[nH]c3cc2[nH]c1=O [Compound 357]
20 | < 0.05 |  | Cc1cc(-c2n[nH]c3cc4c(cc23)CN(C2CN(Cc3ccccc3)C2)C(=O)N4)ccn1 [Compound 191]
21 | 0.25 to 1 |  | Cc1cc(-c2n[nH]c3cc4c(cc23)CN(CCc2ccc(F)cc2)CC(=O)N4)ccn1 [Compound 67]
22 | < 0.05 |  | Cc1cc(-c2n[nH]c3cc4c(cc23)CN([C@@H]2CCCN(C(=O)c3ccccc3)C2)C(=O)N4)ccn1 [Compound 172]
23 |  | < 0.05 | Cc1cc(-c2n[nH]c3cc4c(cc23)CN(Cc2cccc(C(F)(F)F)c2)C(=O)N4)ccn1 [Compound 240]
24 |  | < 0.05 | Cc1cc(-c2n[nH]c3cc4c(cc23)CN([C@@H]2CNC[C@H]2c2ccccc2)C(=O)N4)ccn1 (racemic) [Compound 223]

Row | IC50 (In vitro ERK2 enzyme) [µM] | IC50 [1] [µM] | SMILES
25 |  | < 0.05 | O=C1Nc2cc3[nH]nc(-c4ccncc4)c3cc2CN1[C@@H]1CN(CC(F)(F)F)C[C@H]1c1ccccc1 [Compound 342]
26 | < 0.05 |  | COc1ncc(-c2n[nH]c3cc4c(cc23)CN(Cc2ccc(F)c(Cl)c2)C(=O)N4)cn1 [Compound 37]
27 | < 0.05 |  | COc1ccc(-c2n[nH]c3cc4c(cc23)CN(CCc2cccc(Cl)c2)C(=O)N4)cn1 [Compound 85]
28 | < 0.05 |  | Cc1cc(-c2n[nH]c3cc4c(cc23)CN([C@@H]2CCCN(Cc3ccccc3Cl)C2)C(=O)N4)ccn1 [Compound 158]
29 |  | < 0.05 | O=C1Nc2cc3[nH]nc(-c4ccnnc4)c3cc2CN1[C@@H]1CN(CC(F)(F)F)C[C@H]1c1ccccc1 [Compound 340]
30 |  | 0.05 to 0.25 | CC(c1ccccc1)c1cc2cc3c(N4CCN(C)CC4)n[nH]c3cc2[nH]c1=O (centres unmarked) [Compound 358]
31 |  | < 0.05 | COc1ccc(-c2n[nH]c3cc4c(cc23)CN([C@@H]2CN(C)C[C@H]2c2ccccc2)C(=O)N4)cn1 (mixture of isomers) [Compound 353]
32 |  | 0.25 to 1 | Cc1cc(-c2n[nH]c3cc4c(cc23)CN([C@@H]2CN(Cc3ccccc3)CC(F)(F)C2)C(=O)N4)ccn1 [Compound 263]
33 |  | < 0.05 | Cc1cc(-c2n[nH]c3cc4[nH]c(=O)c(C5CCCN(Cc6cc(F)ccc6F)C5)cc4cc23)ccn1 (centres unmarked) [Compound 336]
34 |  | 0.25 to 1 | Cc1cc(-c2n[nH]c3cc4c(cc23)CN([C@H]2CN(CC(F)(F)F)C[C@@H]2c2ccccc2)C(=O)N4)ccn1 [Compound 303]
35 |  | < 0.05 | Cc1cc(-c2n[nH]c3cc4c(cc23)CN(CC2CCOCC2)C(=O)N4)cc(C)n1 [Compound 250]
36 | < 0.05 |  | COc1ncccc1CN1Cc2cc3c(-c4ccnc(C)c4)n[nH]c3cc2NC1=O [Compound 9]
37 | < 0.05 |  | COc1ncc(-c2n[nH]c3cc4c(cc23)CN([C@@H]2CCCN(Cc3ccccc3)C2)C(=O)N4)cn1 [Compound 104]
38 |  | < 0.05 | CC(c1ccccc1)c1cc2cc3c(-c4ccnc(N5CCOCC5)c4)n[nH]c3cc2[nH]c1=O (centres unmarked) [Compound 325]
39 |  | < 0.05 | COc1ccc(-c2n[nH]c3cc4c(cc23)CN([C@@H]2CCCN(Cc3ccc(F)cc3F)C2)C(=O)N4)cn1 [Compound 273]
40 |  | < 0.05 | Cc1cc(-c2n[nH]c3cc4c(cc23)CN(C(C)C2CCCC2)C(=O)N4)ccn1 (centres unmarked) [Compound 294]
41 | 0.05 to 0.25 |  | COc1ncc(-c2n[nH]c3cc4[nH]c(=O)c(C(C)c5cccc(Cl)c5)cc4cc23)cn1 (centres unmarked) [Compound 129]
42 |  | < 0.05 | COc1ccc(-c2n[nH]c3cc4c(cc23)CN([C@@H]2CCCN(Cc3ccccc3)C2)C(=O)N4)cn1 [Compound 272]
43 |  | 0.05 to 0.25 | Cc1cc(-c2n[nH]c3cc4[nH]c(=O)c(C5CCCN(Cc6cccs6)C5)cc4cc23)ccn1 (centres unmarked) [Compound 378]
44 |  | 0.05 to 0.25 | COc1ccc(-c2n[nH]c3cc4[nH]c(=O)c(C5CCCN(Cc6ccccc6)C5)cc4cc23)cn1 (centres unmarked) [Compound 367]
45 | < 0.05 |  | O=C1Nc2cc3[nH]nc(-c4ccncc4)c3cc2CN1Cc1ccccc1 [Compound 1, 6-benzyl-3-(pyridin-4-yl)-1,5,6,8-tetrahydro-7H-pyrazolo[4,3-g]quinazolin-7-one]
46 |  | < 0.05 | Cc1cc(-c2n[nH]c3cc4c(cc23)CN([C@@H]2CCCN(C(C)C)C2)C(=O)N4)ccn1 [Compound 247]
47 | 0.05 to 0.25 |  | Cc1cc(-c2n[nH]c3cc4[nH]c(=O)c(C(C)C5CCCCC5)cc4cc23)ccn1 (centres unmarked) [Compound 160]
48 |  | < 0.05 | Cc1ccc(-c2n[nH]c3cc4c(cc23)CN([C@@H]2CCCN(Cc3ccc(F)cc3F)C2)C(=O)N4)cn1 [Compound 284]

Row | IC50 (In vitro ERK2 enzyme) [µM] | IC50 [1] [µM] | SMILES
49 |  | < 0.05 | Cc1cc(-c2n[nH]c3cc4c(cc23)CN([C@@H]2CCCN(c3ccc(F)cn3)C2)C(=O)N4)ccn1 [Compound 199]
50 | < 0.05 |  | COc1ccc(CN2Cc3cc4c(-c5ccnc(C)c5)n[nH]c4cc3NC2=O)cc1 [Compound 10]
51 | < 0.05 |  | Cc1cc(-c2n[nH]c3cc4[nH]c(=O)c([C@H](C)c5ccccc5)cc4cc23)ccn1 [Compound 84]
52 | < 0.05 |  | COc1ncc(-c2n[nH]c3cc4c(cc23)CN([C@H](C)c2cccc(Cl)c2)C(=O)N4)cn1 [Compound 71]
53 | < 0.05 |  | CS(=O)(=O)c1ccc(-c2n[nH]c3cc4c(cc23)CN(Cc2cccc(Cl)c2)C(=O)N4)cc1 [Compound 89]
54 | 0.05 to 0.25 |  | COc1ncc(-c2n[nH]c3cc4c(cc23)CN(C)C(=O)N4)cn1 [Compound 96]
55 |  | 0.05 to 0.25 | COc1ncc(-c2n[nH]c3cc4c(cc23)CN([C@H]2CCCN(Cc3ccccc3)C2)C(=O)N4)cn1 [Compound 365]
56 | < 0.05 |  | Cc1cc(-c2n[nH]c3cc4c(cc23)CN([C@@H]2CCCN(Cc3ccccc3)C2)C(=O)N4)ccn1 [Compound 63]
57 | < 0.05 |  | Cc1cc(-c2n[nH]c3cc4[nH]c(=O)n(Cc5ccccc5)c4cc23)ccn1 [Compound 19]
58 | 0.05 to 0.25 |  | Cc1cc(-c2n[nH]c3cc4c(cc23)CN([C@@H]2CCCN(CC3CCC3)C2)C(=O)N4)ccn1 [Compound 137]
59 |  | < 0.05 | CC(c1ccccc1)c1cc2cc3c(N4CCOCC4)n[nH]c3cc2[nH]c1=O (centres unmarked) [Compound 345]
60 | < 0.05 |  | Cc1cc(-c2n[nH]c3cc4c(cc23)CN([C@@H]2CCC[C@H](NCc3ccccc3)C2)C(=O)N4)ccn1 [Compound 177]
61 | < 0.05 |  | [2H]c1c([2H])c([2H])c(C([2H])([2H])N2CCC[C@@H](N3Cc4cc5c(-c6ccnc(C)c6)n[nH]c5cc4NC3=O)C2)c([2H])c1[2H] [Compound 165]
62 |  | < 0.05 | Cc1cc(-c2n[nH]c3cc4c(cc23)CN(Cc2nc(C)c(C)s2)C(=O)N4)ccn1 [Compound 228]
63 |  | < 0.05 | CC(c1ccccc1)c1cc2cc3c(-c4cnn(C)c4)n[nH]c3cc2[nH]c1=O (centres unmarked) [Compound 333]
64 | 0.05 to 0.25 |  | Cc1cc(-c2n[nH]c3cc4c(cc23)CN([C@@H]2CCCN(CCc3ccc(F)cc3)C2)C(=O)N4)ccn1 [Compound 167]
65 |  | < 0.05 | Cc1cc(-c2n[nH]c3cc4c(cc23)CN(Cc2ccc(F)c(Cl)c2)C(=O)N4)cc(C)n1 [Compound 226]
66 |  | < 0.05 | COc1cc(-c2n[nH]c3cc4c(cc23)CN([C@@H]2CN(C)C[C@H]2c2ccccc2)C(=O)N4)ccn1 (mixture of isomers) [Compound 354]
67 |  | 0.05 to 0.25 | Cc1cc(-c2n[nH]c3cc4c(cc23)CN([C@@H]2CCN(C(C)C)C2)C(=O)N4)ccn1 [Compound 268]
68 |  | < 0.05 | Cc1ncc(-c2n[nH]c3cc4c(cc23)CN([C@@H]2CCCN(Cc3ccccc3)C2)C(=O)N4)cn1 [Compound 292]
69 |  | < 0.05 | Cc1cc(-c2n[nH]c3cc4c(cc23)CN([C@@H]2CCCN(Cc3sccc3F)C2)C(=O)N4)ccn1 [Compound 291]
70 | < 0.05 |  | Cc1cc(-c2n[nH]c3cc4c(cc23)CN([C@@H]2CCCN(Cc3cncnc3)C2)C(=O)N4)ccn1 [Compound 166]

Row | SMILES | IC50 (In vitro ERK2 enzyme) [µM] | IC50 [1] [µM]
71 | Cc1cc(-c2n[nH]c3cc4c(cc23)CN(Cc2ccc(C(F)(F)F)cc2)C(=O)N4)ccn1 [Compound 12] | 0.05 to 0.25 | 
